“Also recorded” adds a separate entry of the source. Read-outs that look alike come from different tables or passages of the source. Blank lines part the entries; values can stand above or below the compound they belong to.
Experiments:
[1] = molecular target: T1, recombinant human arginase 1 (Homo sapiens, UniProt P05089); assay: Arginase 1 activity assay, kinetics of ARG conversion to ORN; assay type: biochemical; conditions: absence vs 0.5 mM manganese chloride
T1 sequence (P05089 1-322): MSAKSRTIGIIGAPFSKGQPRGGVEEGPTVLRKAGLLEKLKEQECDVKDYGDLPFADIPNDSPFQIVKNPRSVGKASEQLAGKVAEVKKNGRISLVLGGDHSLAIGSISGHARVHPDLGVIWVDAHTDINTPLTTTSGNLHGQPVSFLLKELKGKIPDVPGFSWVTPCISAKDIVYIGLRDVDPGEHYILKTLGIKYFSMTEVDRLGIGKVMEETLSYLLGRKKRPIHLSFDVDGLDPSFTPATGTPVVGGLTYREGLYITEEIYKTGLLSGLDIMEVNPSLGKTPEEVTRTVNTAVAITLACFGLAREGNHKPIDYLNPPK
Protocol: Incubation mixtures contained HEK293T cell lysate expressing recombinant human arginase 1 (0.05 mg/mL) or arginase 2 (0.1 mg/mL), phosphate buffer (0.05 M, pH 7.4) and ARG (0 to 15 mM).
(§1) Following a 5-min pre-equilibration period reactions were initiated by the addition of the cell lysate solution in 0.05 M phosphate buffer to a pre-equilibrated aqueous solution of the substrate (ARG).
(§2) The samples were vortex mixed (20 sec) and cooled in an ice/water bath for 10 min prior to centrifugation (5 min, 18,000 × g, room temperature) to precipitate the proteins. An aliquot of the supernatant layer was diluted with a 7:3 mobile phase A/mobile phase B solution into glass UPLC vial inserts.
Kinetic data are the mean of three singlicate experiments.

[2] = molecular target: T1, recombinant human arginase 1; assay: Arginase 1 inhibition, UPLC-MS measurement of ARG to ORN conversion in HEK293T cell lysate; conditions: for arginase 1 inhibitor assessment in words: at the concentrations tested, both ARG concentrations; for remaining activity at 1 µM / remaining activity at 10 µM / remaining activity at 100 µM / remaining activity at 1000 µM / remaining activity at 10000 µM: read-out: % of control activity at the corresponding [Inhibitor] ± SE, arginase 1; for remaining activity at 1 µM / remaining activity at 10 µM / remaining activity at 100 µM / remaining activity at 1000 µM / remaining activity at 10000 µM / % of control activity at the corresponding [Inhibitor] ± SE: mean of two experiments; for remaining activity at 10000 µM: inhibitor 10,000 µM; for % of control activity at the corresponding [Inhibitor] ± SE: arginase 1;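 for all read-outs here: arginase 1–expressing HEK293T lysate at 0.05 mg/mL in pH 7.4 phosphate buffer, inhibitor preincubated 5 min with enzyme, then reaction started by adding ARG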
[3] = molecular target: T2, recombinant human arginase 2 (Homo sapiens, UniProt P78540); assay: Arginase 2 inhibition, UPLC-MS measurement of ARG to ORN conversion in HEK293T cell lysate; conditions: for arginase 2 inhibitor assessment in words: at the concentrations tested; for remaining activity at 1 µM / remaining activity at 10 µM / remaining activity at 100 µM / remaining activity at 1000 µM / remaining activity at 10000 µM: read-out: % of control activity at the corresponding [Inhibitor] ± SE, arginase 2; for remaining activity at 1 µM / remaining activity at 10 µM / remaining activity at 100 µM / remaining activity at 1000 µM / remaining activity at 10000 µM / % of control activity at the corresponding [Inhibitor] ± SE: mean of two experiments; for remaining activity at 10000 µM: inhibitor 10,000 µM; for % of control activity at the corresponding [Inhibitor] ± SE: arginase 2;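 for all read-outs here: HEK293T lysate carrying arginase 2 at 0.1 mg/mL in 0.05 M phosphate buffer pH 7.4, inhibitor preincubated with enzyme 5 min before ARG addition started the reaction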
T2 sequence (P78540 23-354): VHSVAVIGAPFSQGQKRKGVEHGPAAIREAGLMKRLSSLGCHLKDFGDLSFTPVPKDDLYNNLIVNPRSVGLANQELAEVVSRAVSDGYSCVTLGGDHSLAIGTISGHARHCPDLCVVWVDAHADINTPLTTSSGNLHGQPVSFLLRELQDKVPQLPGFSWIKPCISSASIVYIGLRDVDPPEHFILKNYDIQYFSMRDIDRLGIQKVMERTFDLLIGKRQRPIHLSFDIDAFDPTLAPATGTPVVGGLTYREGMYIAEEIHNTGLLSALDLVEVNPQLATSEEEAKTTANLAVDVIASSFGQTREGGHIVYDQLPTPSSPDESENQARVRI
Protocol: as §1, §2
Incubation mixtures comprised of HEK293T cell lysate expressing arginase 1 (0.05 mg/mL) or arginase 2 (0.1 mg/mL), phosphate buffer (0.05 M, pH 7.4), inhibitor (0, 0.1, 1, 10, 100, 1000 or 10000 μM) and ARG (0.1, 2 or 3 mM). Following a 5-min pre-incubation of the potential inhibitor with arginase 1 or arginase 2, reactions were initiated by the addition of a pre-equilibrated solution of the substrate ARG.
Sample were diluted 3:17 in mobile phase solution prior injection.

SMILES: [Cl][Mn][Cl] [manganese chloride]
- rate of ORN formation higher in absence of manganese supplementation [1]: 20%

- remaining activity at 1 µM ([2]; ARG 100 µM, inhibitor 1 µM): 115 ± 1%
- remaining activity at 10 µM ([2]; ARG 100 µM, inhibitor 10 µM): 110 ± 1%
- remaining activity at 100 µM ([2]; ARG 100 µM, inhibitor 100 µM): 110 ± 6%
- remaining activity at 1000 µM ([2]; ARG 100 µM, inhibitor 1,000 µM): 104 ± 3%
- remaining activity at 10000 µM ([2]; ARG 100 µM): 54 ± 7%
- remaining activity at 1 µM ([2]; ARG 3 mM, inhibitor 1 µM): 100 ± 1%
- remaining activity at 10 µM ([2]; ARG 3 mM, inhibitor 10 µM): 113 ± 26%
- remaining activity at 100 µM ([2]; ARG 3 mM, inhibitor 100 µM): 106 ± 19%
- remaining activity at 1000 µM ([2]; ARG 3 mM, inhibitor 1,000 µM): 100 ± 17%
- remaining activity at 10000 µM ([2]; ARG 3 mM): 79 ± 20%
- remaining activity at 1 µM ([3]; ARG 100 µM, inhibitor 1 µM): 92 ± 10%
- remaining activity at 10 µM ([3]; ARG 100 µM, inhibitor 10 µM): 99 ± 1%
- remaining activity at 100 µM ([3]; ARG 100 µM, inhibitor 100 µM): 99 ± 2%
- remaining activity at 1000 µM ([3]; ARG 100 µM, inhibitor 1,000 µM): 92 ± 7%
- remaining activity at 10000 µM ([3]; ARG 100 µM): 77 ± 16%
- remaining activity at 1 µM ([3]; ARG 2 mM, inhibitor 1 µM): 98 ± 1%
- remaining activity at 10 µM ([3]; ARG 2 mM, inhibitor 10 µM): 97 ± 7%
- remaining activity at 100 µM ([3]; ARG 2 mM, inhibitor 100 µM): 96 ± 12%
- remaining activity at 1000 µM ([3]; ARG 2 mM, inhibitor 1,000 µM): 98 ± 10%
- remaining activity at 10000 µM ([3]; ARG 2 mM): 75 ± 8%
SMILES: O=C(O)[C@@H]1CCCN1 [PRO, proline]
- arginase 1 inhibitor assessment in words [2]: poor arginase 1 inhibitors; also recorded: no significant inhibition
- arginase 2 inhibitor assessment in words [3]: poor inhibitors; also recorded: no significant inhibition

- % of control activity at the corresponding [Inhibitor] ± SE ([2]; ARG 100 µM, inhibitor 0.1 µM): 102 ± 9%
- % of control activity at the corresponding [Inhibitor] ± SE ([2]; ARG 100 µM, inhibitor 1 µM): 109 ± 4%
- % of control activity at the corresponding [Inhibitor] ± SE ([2]; ARG 100 µM, inhibitor 10 µM): 120 ± 12%
- % of control activity at the corresponding [Inhibitor] ± SE ([2]; ARG 100 µM, inhibitor 100 µM): 109 ± 8%
- % of control activity at the corresponding [Inhibitor] ± SE ([2]; ARG 100 µM, inhibitor 1,000 µM): 87 ± 1%
- % of control activity at the corresponding [Inhibitor] ± SE ([2]; ARG 3 mM, inhibitor 0.1 µM): 98 ± 7%
- % of control activity at the corresponding [Inhibitor] ± SE ([2]; ARG 3 mM, inhibitor 1 µM): 89 ± 2%
- % of control activity at the corresponding [Inhibitor] ± SE ([2]; ARG 3 mM, inhibitor 10 µM): 90 ± 1%
- % of control activity at the corresponding [Inhibitor] ± SE ([2]; ARG 3 mM, inhibitor 100 µM): 86 ± 4%
- % of control activity at the corresponding [Inhibitor] ± SE ([2]; ARG 3 mM, inhibitor 1,000 µM): 69 ± 4%
- arginase 1 inhibitor assessment in words [2]: poor arginase 1 inhibitors
- % of control activity at the corresponding [Inhibitor] ± SE ([3]; ARG 100 µM, inhibitor 0.1 µM): 115 ± 7%
- % of control activity at the corresponding [Inhibitor] ± SE ([3]; ARG 100 µM, inhibitor 1 µM): 112 ± 13%
- % of control activity at the corresponding [Inhibitor] ± SE ([3]; ARG 100 µM, inhibitor 10 µM): 109 ± 9%
- % of control activity at the corresponding [Inhibitor] ± SE ([3]; ARG 100 µM, inhibitor 100 µM): 94 ± 14%
- % of control activity at the corresponding [Inhibitor] ± SE ([3]; ARG 100 µM, inhibitor 1,000 µM): 104 ± 3%
- % of control activity at the corresponding [Inhibitor] ± SE ([3]; ARG 2 mM, inhibitor 0.1 µM): 80 ± 7%
- % of control activity at the corresponding [Inhibitor] ± SE ([3]; ARG 2 mM, inhibitor 1 µM): 84 ± 12%
- % of control activity at the corresponding [Inhibitor] ± SE ([3]; ARG 2 mM, inhibitor 10 µM): 92 ± 12%
- % of control activity at the corresponding [Inhibitor] ± SE ([3]; ARG 2 mM, inhibitor 100 µM): 90 ± 14%
- % of control activity at the corresponding [Inhibitor] ± SE ([3]; ARG 2 mM, inhibitor 1,000 µM): 87 ± 15%
- arginase 2 inhibitor assessment in words [3]: poor arginase inhibitors
SMILES: CN(C)C(N)=NCCC[C@H](N)C(=O)O [ADMA, asymmetric dimethylarginine]

From paper PMC5829263, “Homoarginine and inhibition of human arginase activity: kinetic characterization and biological relevance” (Scientific Reports, 2018)
